Laboratory results: ChEMBL document CHEMBL5214967, “Natural Product-Inspired Targeted Protein Degraders: Advances and Perspectives” (J Med Chem, 2022)

Columns and labels:
[1] = Antiviral activity against IAV WSN/33 infected in luciferase tagged HEK293T cells assessed as suppression of de novo viral replication incubated for 24 hr; assay type: functional, cell-based; details: Influenza A virus, WSN/33, HEK-293T
[2] = tested on: DU-145; experiment: Cytotoxicity against human DU-145 cells; assay type: functional, cell-based
[3] = tested on: LNCaP; experiment: Cytotoxicity against human LNCap cells; assay type: functional, cell-based
[4] = tested on: CWR22R; experiment: Cytotoxicity against human 22Rv1 cells; assay type: functional, cell-based
[5] = target: Kelch-like ECH-associated protein 1/Cyclin-dependent kinase 9 (Homo sapiens, UniProt P50750+Q14145); experiment: PROTAC activity at Keap1/CDK9 in human MOLT4 cells measured after 16 hrs; assay type: cell-based; details: molt-4
Chain of Kelch-like ECH-associated protein 1/Cyclin-dependent kinase 9 (P50750 whole entry): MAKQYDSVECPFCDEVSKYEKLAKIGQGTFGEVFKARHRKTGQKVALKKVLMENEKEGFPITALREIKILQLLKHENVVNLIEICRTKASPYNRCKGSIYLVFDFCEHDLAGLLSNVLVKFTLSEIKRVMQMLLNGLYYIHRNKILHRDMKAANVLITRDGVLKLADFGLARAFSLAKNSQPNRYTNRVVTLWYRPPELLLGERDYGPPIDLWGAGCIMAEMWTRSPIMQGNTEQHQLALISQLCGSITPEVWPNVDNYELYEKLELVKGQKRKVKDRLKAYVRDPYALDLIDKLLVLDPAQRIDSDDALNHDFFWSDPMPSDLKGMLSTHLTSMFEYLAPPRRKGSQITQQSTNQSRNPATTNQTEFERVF
Chain of Kelch-like ECH-associated protein 1/Cyclin-dependent kinase 9 (Q14145 whole entry): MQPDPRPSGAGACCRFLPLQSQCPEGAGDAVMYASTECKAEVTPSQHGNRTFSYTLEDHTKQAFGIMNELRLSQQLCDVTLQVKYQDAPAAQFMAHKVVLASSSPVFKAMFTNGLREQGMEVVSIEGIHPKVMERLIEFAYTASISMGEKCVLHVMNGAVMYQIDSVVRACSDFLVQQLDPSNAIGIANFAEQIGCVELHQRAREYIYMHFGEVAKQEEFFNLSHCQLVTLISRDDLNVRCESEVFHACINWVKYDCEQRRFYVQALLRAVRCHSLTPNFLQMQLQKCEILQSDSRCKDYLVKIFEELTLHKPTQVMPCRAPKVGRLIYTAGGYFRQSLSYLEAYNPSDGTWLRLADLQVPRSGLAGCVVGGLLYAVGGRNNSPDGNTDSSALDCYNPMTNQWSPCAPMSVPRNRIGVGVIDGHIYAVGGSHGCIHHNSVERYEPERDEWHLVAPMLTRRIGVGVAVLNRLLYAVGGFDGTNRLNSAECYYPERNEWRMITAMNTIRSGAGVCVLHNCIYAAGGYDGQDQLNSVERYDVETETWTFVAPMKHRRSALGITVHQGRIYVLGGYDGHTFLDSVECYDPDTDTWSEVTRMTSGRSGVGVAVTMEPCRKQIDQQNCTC

[6] = target: T1, von Hippel-Lindau disease tumor suppressor/3-hydroxy-3-methylglutaryl-coenzyme A reductase (Homo sapiens, UniProt P04035+P40337); experiment: PROTAC activity at VHL/recombinant HMGCR in human HepG2 cells assessed as degradation of HMGCR measured at 0.1 uM after 16 hrs relative to control; assay type: cell-based
Target sequence in this assay (P40337 whole entry, looked up, one chain of several): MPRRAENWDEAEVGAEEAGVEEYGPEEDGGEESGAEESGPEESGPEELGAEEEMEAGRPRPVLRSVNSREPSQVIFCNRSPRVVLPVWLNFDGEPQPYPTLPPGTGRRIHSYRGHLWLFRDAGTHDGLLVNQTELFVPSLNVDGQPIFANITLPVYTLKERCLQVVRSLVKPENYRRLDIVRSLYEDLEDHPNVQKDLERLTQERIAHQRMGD

[7] = target: T1, von Hippel-Lindau disease tumor suppressor/3-hydroxy-3-methylglutaryl-coenzyme A reductase; experiment: PROTAC activity at VHL/recombinant HMGCR in human Insig-depletion HepG2 cells assessed as degradation of HMGCR measured at 1 uM after 16 hrs relative to control; assay type: cell-based
Target sequence in this assay (P40337 whole entry, looked up, one chain of several): as above

[8] = target: T1, von Hippel-Lindau disease tumor suppressor/3-hydroxy-3-methylglutaryl-coenzyme A reductase; experiment: PROTAC activity at VHL/recombinant HMGCR in human Insig-depletion HepG2 cells assessed as degradation of HMGCR measured after 16 hrs; assay type: cell-based
Target sequence in this assay (P40337 whole entry, one chain of several): as the sequence (P40337 whole entry, looked up, one chain of several) above

[9] = target: T2, 3-hydroxy-3-methylglutaryl-coenzyme A reductase (Homo sapiens, UniProt P04035); experiment: Inhibition of HMGCR (unknown origin)
T2 sequence (P04035 whole entry): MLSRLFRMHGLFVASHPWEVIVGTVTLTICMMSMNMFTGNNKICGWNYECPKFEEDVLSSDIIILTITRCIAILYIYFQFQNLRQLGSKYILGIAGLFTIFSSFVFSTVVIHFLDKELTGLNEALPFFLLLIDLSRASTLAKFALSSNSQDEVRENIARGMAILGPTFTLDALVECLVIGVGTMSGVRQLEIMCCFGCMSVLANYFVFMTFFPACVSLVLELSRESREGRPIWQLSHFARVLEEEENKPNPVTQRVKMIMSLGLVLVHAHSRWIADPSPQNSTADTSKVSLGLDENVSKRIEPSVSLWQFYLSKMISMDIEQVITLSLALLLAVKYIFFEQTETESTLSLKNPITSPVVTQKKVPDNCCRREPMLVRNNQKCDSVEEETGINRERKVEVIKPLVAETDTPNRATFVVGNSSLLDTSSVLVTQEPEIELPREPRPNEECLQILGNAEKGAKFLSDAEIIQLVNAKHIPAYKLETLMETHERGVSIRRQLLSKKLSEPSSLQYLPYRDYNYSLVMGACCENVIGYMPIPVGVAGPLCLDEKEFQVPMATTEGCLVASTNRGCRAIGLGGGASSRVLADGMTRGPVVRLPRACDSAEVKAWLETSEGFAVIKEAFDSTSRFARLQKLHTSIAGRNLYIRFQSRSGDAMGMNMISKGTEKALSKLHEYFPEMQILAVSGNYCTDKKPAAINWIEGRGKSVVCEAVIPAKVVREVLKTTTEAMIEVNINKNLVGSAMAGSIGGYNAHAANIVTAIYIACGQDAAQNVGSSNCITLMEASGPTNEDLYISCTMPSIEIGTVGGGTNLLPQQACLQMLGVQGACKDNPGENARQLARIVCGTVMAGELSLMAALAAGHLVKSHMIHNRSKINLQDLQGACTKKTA

[10] = target: T3, Kelch-like ECH-associated protein 1/Bromodomain-containing protein 4 (Homo sapiens, UniProt O60885+Q14145); experiment: PROTAC activity at Keap1/BRD4 in human MDA-MB-231 cells assessed as degradation of BRD4 measured after 10 hrs; assay type: cell-based
T3 sequence (Q14145 whole entry, looked up, other chains not shown): as the sequence (Q14145 whole entry) above

[11] = target: T3, Kelch-like ECH-associated protein 1/Bromodomain-containing protein 4; experiment: PROTAC activity at Keap1/BRD4 in human MDA-MB-231 cells assessed as degradation of BRD4 measured after 5 hrs; assay type: cell-based
[12] = target: Cyclin-dependent kinase 9 (Homo sapiens, UniProt P50750); experiment: Inhibition of CDK9 (unknown origin) incubated for 1 hr by fluorescent polarisation based assay
Chain of Cyclin-dependent kinase 9 (P50750 whole entry): as the sequence (P50750 whole entry) above

[13] = tested on: MCF7; experiment: cells; details: Homo sapiens, MCF7, 72 h
Description: Antiproliferative activity against human MCF7 cells incubated for 72 hrs by MTT assay

[14] = target: T2, 3-hydroxy-3-methylglutaryl-coenzyme A reductase; experiment: Degradation of HMGCR (unknown origin) expressed in CHO-7 cells; assay type: cell-based
[15] = tested on: HT-29; experiment: Cytotoxicity against human HT-29 cells incubated for 72 hrs by CCK-8 assay; assay type: functional, cell-based; details: HT-29, 72 h
[16] = target: T4, Protein cereblon/Protein deacetylase HDAC6 (Homo sapiens, UniProt Q9UBN7+Q96SW2); experiment: PROTAC activity at CRBN/HDAC6 (unknown origin) assessed as degradation of HDAC6; assay type: protein assay
Target sequence in this assay (Q9UBN7 whole entry): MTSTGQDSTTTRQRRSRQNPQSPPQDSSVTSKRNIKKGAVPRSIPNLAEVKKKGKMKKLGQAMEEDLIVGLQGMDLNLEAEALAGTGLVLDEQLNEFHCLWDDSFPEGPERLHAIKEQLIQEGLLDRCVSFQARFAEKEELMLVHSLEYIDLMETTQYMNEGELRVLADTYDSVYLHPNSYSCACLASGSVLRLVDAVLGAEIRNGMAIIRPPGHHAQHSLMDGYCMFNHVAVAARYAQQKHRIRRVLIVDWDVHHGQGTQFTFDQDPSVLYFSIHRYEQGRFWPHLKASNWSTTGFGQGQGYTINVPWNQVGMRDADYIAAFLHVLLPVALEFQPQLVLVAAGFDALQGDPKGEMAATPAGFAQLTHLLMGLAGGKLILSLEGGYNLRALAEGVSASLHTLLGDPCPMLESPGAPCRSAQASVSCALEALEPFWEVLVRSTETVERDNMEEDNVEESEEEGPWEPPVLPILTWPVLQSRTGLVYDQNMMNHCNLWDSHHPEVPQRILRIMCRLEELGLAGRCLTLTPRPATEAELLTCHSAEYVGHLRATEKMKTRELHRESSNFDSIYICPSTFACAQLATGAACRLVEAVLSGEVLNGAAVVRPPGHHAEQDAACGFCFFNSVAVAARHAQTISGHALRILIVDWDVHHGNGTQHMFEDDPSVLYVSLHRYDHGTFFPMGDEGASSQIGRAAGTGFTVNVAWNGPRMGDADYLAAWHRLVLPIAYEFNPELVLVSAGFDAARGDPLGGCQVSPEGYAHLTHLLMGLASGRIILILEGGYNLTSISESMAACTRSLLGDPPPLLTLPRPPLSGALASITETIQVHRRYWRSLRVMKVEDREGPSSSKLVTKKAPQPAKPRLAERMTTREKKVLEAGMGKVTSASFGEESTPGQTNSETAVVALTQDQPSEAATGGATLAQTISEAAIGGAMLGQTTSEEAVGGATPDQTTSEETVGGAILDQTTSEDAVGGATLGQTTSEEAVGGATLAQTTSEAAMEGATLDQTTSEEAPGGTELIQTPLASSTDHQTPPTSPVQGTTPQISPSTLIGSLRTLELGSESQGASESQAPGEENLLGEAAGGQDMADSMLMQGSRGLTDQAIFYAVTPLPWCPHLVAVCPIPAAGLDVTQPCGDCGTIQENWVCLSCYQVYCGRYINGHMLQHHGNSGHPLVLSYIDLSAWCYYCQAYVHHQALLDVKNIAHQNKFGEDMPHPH
Target sequence in this assay (Q96SW2 whole entry): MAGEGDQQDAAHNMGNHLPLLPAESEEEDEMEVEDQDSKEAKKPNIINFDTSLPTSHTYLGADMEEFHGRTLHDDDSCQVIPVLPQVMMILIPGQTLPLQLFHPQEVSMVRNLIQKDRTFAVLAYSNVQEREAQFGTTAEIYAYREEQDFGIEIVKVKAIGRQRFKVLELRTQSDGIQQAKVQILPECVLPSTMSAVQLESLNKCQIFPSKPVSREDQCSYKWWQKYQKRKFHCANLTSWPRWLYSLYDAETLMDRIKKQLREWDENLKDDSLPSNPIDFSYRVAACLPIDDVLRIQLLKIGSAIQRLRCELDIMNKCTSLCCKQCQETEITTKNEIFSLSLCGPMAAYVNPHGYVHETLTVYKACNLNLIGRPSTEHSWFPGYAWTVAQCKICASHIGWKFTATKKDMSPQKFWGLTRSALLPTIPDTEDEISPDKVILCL

[17] = target: T4, Protein cereblon/Protein deacetylase HDAC6; experiment: PROTAC activity at CRBN/HDAC6 (unknown origin) assessed as degradation of HDAC6 relative to control; assay type: protein assay
Target sequence in this assay (Q96SW2 whole entry, looked up): as the sequence (Q96SW2 whole entry) above
Target sequence in this assay (Q9UBN7 whole entry, looked up): as the sequence (Q9UBN7 whole entry) above

[18] = tested on: SU-DHL-1; experiment: Cytotoxicity against human SU-DHL-1 cells incubated for 72 hrs by CCK-8 assay; assay type: functional, cell-based; details: SU-DHL-1, 72 h
[19] = target: E3 ubiquitin-protein ligase RNF114 (Homo sapiens, UniProt Q9Y508); experiment: Inhibition of RNF114 (unknown origin)
Chain of E3 ubiquitin-protein ligase RNF114 (Q9Y508 whole entry): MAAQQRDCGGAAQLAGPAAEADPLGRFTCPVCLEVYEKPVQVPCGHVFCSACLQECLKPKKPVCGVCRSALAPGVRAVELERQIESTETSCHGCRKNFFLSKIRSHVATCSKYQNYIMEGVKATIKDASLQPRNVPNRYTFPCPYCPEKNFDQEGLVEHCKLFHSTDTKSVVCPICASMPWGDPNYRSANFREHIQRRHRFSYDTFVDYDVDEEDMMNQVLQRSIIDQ

[20] = target: E3 ubiquitin-protein ligase RNF114/Bromodomain-containing protein 4 (Homo sapiens, UniProt O60885+Q9Y508); experiment: PROTAC activity at RNF114/BRD4 (unknown origin) assessed as degradation of BRD4 incubated for 30 mins SDS-PAGE based fluorescence analysis
Chain of E3 ubiquitin-protein ligase RNF114/Bromodomain-containing protein 4 (Q9Y508 whole entry, looked up, other chains not shown): as the sequence (Q9Y508 whole entry) above

Molecule `C/C(=C\CC/C(C)=C/C[C@]1(O)C(=O)c2c(O)cc(C)c3c(O)c(C)c(O)c(c23)C1=O)CC/C=C(\CO)CC[C@@H](O)C(C)(C)O` has an IC50 [1] of 6600 nM.

`COc1cc(/C=C/C(=O)N2CCC=CC2=O)cc(OC)c1OCCN1CCN(C(=O)CN2CCC(C(=O)Nc3ncc(SCc4ncc(C(C)(C)C)o4)s3)CC2)CC1` gave an EC50 [2] of 8.5 nM, an EC50 [3] of 3.2 nM and an EC50 [4] of 6.4 nM. For the same molecule, the DC50 [5] was 9 nM.

Molecule `Cc1ncsc1-c1ccc(CNC(=O)[C@@H]2C[C@@H](O)CN2C(=O)[C@H](NC(=O)CCCCCCCCCCNC(=O)OC2C[C@@H](C)C=C3C=C[C@H](C)[C@H](CC[C@@H](O)C[C@@H](O)CC=O)[C@H]32)C(C)(C)C)cc1` (stereo not given in full) has an Emax [6] of 56%, an Emax [7] of 76% and a DC50 [8] of 120 nM. For the same molecule, the IC50 [9] was 250 nM.

Molecule `CC1=C(O)C(=O)C=C2C1=CC=C1[C@@]2(C)CC[C@@]2(C)[C@@H]3C[C@](C)(C(=O)NCCCOCCOCCOCCCNC(=O)C[C@@H]4N=C(c5ccc(Cl)cc5)c5c(sc(C)c5C)-n5c(C)nnc54)CC[C@]3(C)CC[C@]12C` has a DC50 [10] of 9.6 nM and a DC50 [11] of 29 nM.

`O=C1CCC(N2C(=O)c3cccc(NC(=O)CCCCCCCn4cc(COc5c(O)cc(O)c6c(=O)cc(-c7ccccc7)oc56)nn4)c3C2=O)C(=O)N1` (stereo not given) gave an IC50 [12] of 523 nM and an IC50 [13] of 17 nM.

For `C=CCC(O)(CC=C)CCC[C@@H](C)[C@H]1CC[C@H]2[C@@H]3[C@@H](O)C=C4C(C)(C)[C@@H](O)CC[C@]4(C)[C@H]3CC[C@]12C`, the DC50 [14] was 390 nM.

In the case of `Cc1ncsc1-c1ccc([C@H](C)NC(=O)[C@@H]2CC(OC(=O)CCCCn3cc(CNC(=O)CC[C@H](NC(=O)c4ccc(NCc5cnc6[nH]c(N)nc(=O)c6n5)cc4)C(=O)O)nn3)CN2C(=O)[C@H](NC(=O)CCCCCCCCCCNCCCONC(=O)c2ccc(F)c(F)c2Nc2ccc(I)cc2F)C(C)(C)C)cc1` (stereo not given in full), the IC50 [15] is reported as 436 nM.

Work on `O=C(CCCO/N=C1/C(=C2/C(=O)N(Cc3cn(CCOCCNc4cccc5c4C(=O)N(C4CCC(=O)NC4=O)C5=O)nn3)c3ccccc32)Nc2ccccc21)NO` (stereo not given) yielded a DC50 [16] of 109 nM and an Emax [17] of 88%.

`Cc1cc(Nc2ncc(N)c(Nc3ccccc3S(=O)(=O)C(C)C)n2)c(OC(C)C)cc1C1CCN(C(=O)CCCC(=O)N[C@@H](C(=O)N2C[C@H](OC(=O)CCCCn3cc(CNC(=O)CCC(NC(=O)c4ccc(NCc5cnc6nc(N)[nH]c(=O)c6n5)cc4)C(=O)O)nn3)C[C@H]2C(=O)N[C@@H](C)c2ccc(-c3scnc3C)cc2)C(C)(C)C)CC1` (stereo not given in full) showed an IC50 [18] of 200 nM.

`COC(=O)C[C@H]1[C@]2(C)C3=C(C)C(c4ccoc4-c4ccc(C(=O)NCCCNC(=O)C[C@@H]5N=C(c6ccc(Cl)cc6)c6c(sc(C)c6C)-n6c(C)nnc65)cc4)C[C@H]3C[C@@H]2[C@@H]2OC(=O)[C@]3(C)C=CC(=O)[C@@]1(C)[C@@H]23` (stereo not given in full) gave an IC50 [19] of 240 nM and a DC50 [20] of 10 nM.
